Results on 47 compounds are retold here after patent US20100331297A1, “MODULATION OF PROTEIN TRAFFICKING” (FOLDRX PHARMACEUTICALS, INC., priority 2007, published 2010).

Each structure is given as a SMILES string. pEC50: −log10 of the molar value.

T1 sequence (P13569 with tags, fused parts or gaps DEL508-508): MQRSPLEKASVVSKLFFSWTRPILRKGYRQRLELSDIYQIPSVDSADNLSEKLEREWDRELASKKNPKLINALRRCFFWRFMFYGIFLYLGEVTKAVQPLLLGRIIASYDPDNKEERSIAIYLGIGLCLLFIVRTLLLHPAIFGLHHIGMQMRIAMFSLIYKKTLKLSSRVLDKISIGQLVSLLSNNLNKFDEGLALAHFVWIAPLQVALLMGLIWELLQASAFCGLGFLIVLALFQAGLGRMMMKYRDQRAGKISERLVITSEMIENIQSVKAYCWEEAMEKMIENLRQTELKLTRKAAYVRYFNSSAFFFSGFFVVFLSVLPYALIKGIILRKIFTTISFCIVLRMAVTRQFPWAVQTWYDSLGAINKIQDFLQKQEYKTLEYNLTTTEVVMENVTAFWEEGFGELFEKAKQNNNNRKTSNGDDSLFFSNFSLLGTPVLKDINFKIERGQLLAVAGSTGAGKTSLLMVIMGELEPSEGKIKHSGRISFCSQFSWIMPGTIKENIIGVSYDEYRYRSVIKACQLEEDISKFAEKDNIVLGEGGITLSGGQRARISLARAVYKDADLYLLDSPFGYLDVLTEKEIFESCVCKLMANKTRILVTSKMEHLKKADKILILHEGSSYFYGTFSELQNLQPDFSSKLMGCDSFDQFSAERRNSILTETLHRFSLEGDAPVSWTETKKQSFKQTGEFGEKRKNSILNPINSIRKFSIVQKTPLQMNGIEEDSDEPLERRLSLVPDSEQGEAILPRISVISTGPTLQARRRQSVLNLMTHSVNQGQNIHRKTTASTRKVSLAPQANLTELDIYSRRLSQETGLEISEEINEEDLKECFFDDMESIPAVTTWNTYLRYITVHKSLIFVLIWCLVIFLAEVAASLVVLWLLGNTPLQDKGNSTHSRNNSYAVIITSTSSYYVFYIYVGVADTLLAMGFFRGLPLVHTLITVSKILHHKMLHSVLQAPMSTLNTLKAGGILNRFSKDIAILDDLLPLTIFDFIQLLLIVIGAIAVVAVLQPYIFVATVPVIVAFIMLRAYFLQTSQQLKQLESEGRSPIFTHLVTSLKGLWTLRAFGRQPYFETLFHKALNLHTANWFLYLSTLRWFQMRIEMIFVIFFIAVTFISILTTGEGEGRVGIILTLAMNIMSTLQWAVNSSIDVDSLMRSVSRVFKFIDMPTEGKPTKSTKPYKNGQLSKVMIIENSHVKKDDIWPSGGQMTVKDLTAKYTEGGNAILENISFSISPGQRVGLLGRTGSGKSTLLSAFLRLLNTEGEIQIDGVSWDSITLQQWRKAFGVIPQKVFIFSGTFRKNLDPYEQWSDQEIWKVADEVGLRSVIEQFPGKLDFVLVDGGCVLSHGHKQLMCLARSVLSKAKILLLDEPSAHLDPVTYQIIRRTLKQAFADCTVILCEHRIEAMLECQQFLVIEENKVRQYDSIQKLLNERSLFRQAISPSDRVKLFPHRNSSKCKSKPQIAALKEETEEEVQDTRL

The subject of the first assay is ypt1^ts cells. Nature of the assay: Rescue of growth of ypt1^ts mutant yeast (OD600). It is filed as cell-based. The following applies: Saccharomyces cerevisiae, read-out: Ypt1-ts MRC (Minimum Rescue Concentration), ypt1^ts cells, 35° C. and 37° C., OD600; multiple results separated by a comma. The text has this:
The activity of the compounds as modulators of protein trafficking may be measured in the assays described herein that evaluate the ability of a compound to rescue an impairment in protein trafficking. For example, the yeast mutant cell line ypt1^ts can be used to identify compounds that rescue cells from the lethal phenotype of a mutant YPT1 allele (see, e.g., Examples and Schmitt et al. (1988) Cell 53:635-47). The activity may be measured, for example, in a whole yeast cell assay using 384-well screening protocol and an optical density measurement.
The yeast mutant cell line ypt1^ts suppresses, in a temperature dependent fashion, the dominant-lethal phenotype of a mutant YPT1 allele (Schmitt et al. (1988) Cell 53:635-47). The yeast mutant cell line ypt1^ts contains an allele of YPT1 that has two point mutations: one that changes an asparagine at position 121 to a isoleucine (N121I) and another that changes an alanine at position 161 to a valine (A161V). The N121I mutation causes dominant lethality by itself, but lethality is suppressed by the second mutation, resulting in a recessive loss of function phenotype at the restrictive temperatures. ypt1^ts cells grow normally at temperatures up to 25° C., but are growth arrested at 37° C. (Id.).
Compounds were screened to assess their ability to restore growth of ypt1^ts cells. The effect of the compounds was measured on ypt1^ts cells cultured at room temperature (permissive temperature), 37° C. (non-permissive temperature), and 35° C. (semi-permissive temperature).
To determine if the test compounds could rescue the ypt1^ts mutant phenotype, ypt1^ts cells were grown overnight in synthetic complete (SC) media supplemented with 2% glucose at room temperature. Log phase cells were diluted into SC 2% glucose media to an OD600 of 0.003. 100 μL of this culture was then aliquoted into each well of 96-well flat bottom microtiter plates. 1 μL of the test compounds dissolved in DMSO (at a concentration range from 5 mM-0.005 mM) or of DMSO alone was added to each well (50 μM-0.05 μM final concentration in 1% DMSO). Plates were mixed by vortexing and incubated at 35° C. and 37° C. Compound rescue of the ypt1^ts temperature sensitive defect was assessed by measuring the OD600 (optical density at 600 nm; cell growth) of the cultures. Plates incubated at 35° C. were measured at 24 and 40 hours incubation time while plates grown at 37° C. were measured after 40 hours of incubation.
Assays monitoring the rescue of ypt1^ts mutants were performed using a vehicle, a positive control (calcium), and the compounds identified in Table II. Results in Table II corresponding to an MRC (Minimum Rescue Concentration) for ypt1^ts of greater than or equal to 50 micromolar are labeled +; of an MRC for ypt1^ts of 10-50 micromolar are labeled ++; and of an MRC for ypt1^ts of less than 10 micromolar are labeled +++. Multiple results for a particular compound are separated by a comma.
As to `CCn1nc(-c2ccc(Cl)cc2)c2c(N(C(C)=O)C(C)=O)ncnc21` [compound 54], the minimal effective concentration is greater than 50 µM.

For `CC(C)(C)n1nc(Cc2ccc(F)cc2)c2c(N)ncnc21` [compound 51], the minimal effective concentration is greater than 50 µM.

As to `CC(C)(C)n1nc(Cc2cccc3ccccc23)c2c(N)nc(C3CC3)nc21` [compound 92], the minimal effective concentration is greater than 50 µM. Same read-out and setting: in the case of `CC(C)(C)n1nc(Cc2ccc(Cl)cc2)c2c(N)ncnc21` [compound 19] it was less than 10 µM. Consider `CC(C)(C)n1nc(Cc2cccc3ccoc23)c2c(N)ncnc21` [compound 68], for which the minimal effective concentration lay in the range of 10 to 50 µM.

In the case of `CC(C)(C)n1ncc2c(N)ncnc21` [compound 12, 1-tert-butyl-1H-pyrazolo[3,4-d]pyrimidin-4-ylamine], the minimal effective concentration is greater than 50 µM. On the same count and under the same terms, in the case of `Nc1ncnc2c1c(Cc1cccc3ccccc13)nn2CC1CC1` [compound 72] it was less than 10 µM; in that of `CC(C)(C)n1nc(C(=O)c2ccccc2)c2c(N)ncnc21` [compound 83, (4-Amino-1-tert-butyl-1H-pyrazolo[3,4-d]pyrimidin-3-yl)-phenyl-methanone], greater than 50 µM. `Cc1ccc(Cc2nn(C(C)(C)C)c3ncnc(N)c23)cc1` [compound 22]: the minimal effective concentration was 10 to 50 µM.

Consider `CC(C)(C)n1nc(Cc2cccc(C#N)c2)c2c(N)ncnc21` [compound 59], for which the minimal effective concentration was greater than 50 µM. For the compound `CC(C)(C)n1nc(C(=O)O)c2c(N)ncnc21` [compound 85, 4-Amino-1-tert-butyl-1H-pyrazolo[3,4-d]pyrimidine-3-carboxylic acid], the minimal effective concentration is greater than 50 µM. For `CC(C)(C)n1nc(-c2ccsc2)c2c(N)ncnc21` [compound 37], the minimal effective concentration is greater than 50 µM. Consider `CC(C)(C)n1nc(-c2ccc(F)cc2)c2c(N)ncnc21` [compound 9, 1-tert-Butyl-3-(4-fluoro-phenyl)-1H-pyrazolo[3,4-d]pyrimidin-4-ylamine], for which the minimal effective concentration is greater than 50 µM. Regarding `COc1cccc(Cc2nn(C(C)(C)C)c3ncnc(N)c23)c1` [compound 56], the minimal effective concentration is 10 to 50 µM. In the case of `CC(C)(C)n1nc(-c2ccccc2Cl)c2c(N)ncnc21` [compound 7], the minimal effective concentration was greater than 50 µM. As for `CC(C)(C)n1nc(Cc2cccc3c2OCC3)c2c(N)ncnc21` [compound 66], the minimal effective concentration lay within 10 to 50 µM. As to `CC(C)(C)n1nc(CNc2ccccc2)c2c(N)ncnc21` [compound 88], the minimal effective concentration fell in the range of 10 to 50 µM. For `CC(C)(C)n1nc(-c2ccc(-c3ccccc3)cc2)c2c(N)ncnc21` [compound 14], the minimal effective concentration is greater than 50 µM. Still for that read-out and setting: under `CC(C)(C)n1nc(Cc2ccc3c(c2)OCO3)c2c(N)ncnc21` [compound 23] stands 10 to 50 µM. As to `CC(C)(C)n1nc(Cc2cccc(-c3ccccc3)c2)c2c(N)ncnc21` [compound 60], the minimal effective concentration is greater than 50 µM.

Consider `CC(C)(C)n1nc(C(O)c2ccccc2)c2c(N)ncnc21` (centres unmarked) [compound 82, (4-amino-1-tert-butyl-1H-pyrazolo[3,4-d]pyrimidin-3-yl)-phenyl-methanol], for which the minimal effective concentration is greater than 50 µM. For `Nc1ncnc2[nH]nc(Cc3cccc4ccccc34)c12` [compound 70], the minimal effective concentration is greater than 50 µM. As for `CCc1nc(N)c2c(-c3ccc(Cl)cc3)nn(C(C)(C)C)c2n1` [compound 61], the minimal effective concentration is greater than 50 µM. As for `CCn1nc(Cc2cccc3ccccc23)c2c(N)ncnc21` [compound 71], the minimal effective concentration is less than 10 µM.

As for `CC(C)c1ccc(-c2nn(C(C)(C)C)c3ncnc(N)c23)cc1` [compound 17], the minimal effective concentration is greater than 50 µM. On to `CC(C)(C)n1nc(COCc2ccccc2)c2c(N)ncnc21` [compound 81, 3-benzyloxymethyl-1-tert-butyl-1H-pyrazolo[3,4-d]pyrimidin-4-ylamine], for which the minimal effective concentration was greater than 50 µM. The same measure, in the same setting: in the case of `CC(C)n1nc(Cc2cccc3ccccc23)c2c(N)ncnc21` [compound 78] it was less than 10 µM. As to `CC(C)(C)n1nc(Cc2cccc(F)c2)c2c(N)ncnc21` [compound 50], the minimal effective concentration is 10 to 50 µM. As to `Cc1ccc(Cc2nn(C(C)(C)C)c3ncnc(N)c23)cc1C` [compound 65], the minimal effective concentration was in the range of 10 to 50 µM. `Cc1cccc(Cc2nn(C(C)(C)C)c3ncnc(N)c23)c1` [compound 52]: the minimal effective concentration lay within 10 to 50 µM.

Turning to `CC(C)(C)c1ccc(-c2nn(C(C)(C)C)c3ncnc(N)c23)cc1` [compound 18], the minimal effective concentration was greater than 50 µM.

With `CN(C)c1cccc(C(O)c2nn(C(C)(C)C)c3ncnc(N)c23)c1` (centres unmarked) [compound 87], the minimal effective concentration is greater than 50 µM. Turning to `C=CCn1nc(Cc2cccc3ccccc23)c2c(N)ncnc21` [compound 76], the minimal effective concentration lay in the range of 10 to 50 µM. On the same count and under the same terms, in the case of `CC(C)(C)n1nc(-c2cc3ccccc3o2)c2c(N)ncnc21` [compound 42] it was greater than 50 µM; in that of `CC(C)(C)n1nc(Cc2ccc(Cl)c(Cl)c2)c2c(N)ncnc21` [compound 21], greater than 50 µM; in that of `CC(C)(C)n1nc(-c2cccs2)c2c(N)ncnc21` [compound 15], greater than 50 µM. For the compound `CC(C)(C)n1nc(CCc2ccccc2)c2c(N)ncnc21` [compound 48], the minimal effective concentration was greater than 50 µM. Take `CC(C)(C)n1nc(-c2ccc(Cl)c(Cl)c2)c2c(N)ncnc21` [compound 36]: the minimal effective concentration was greater than 50 µM. As to `Nc1ncnc2c1c(Cc1cccc3ccccc13)nn2C1CC1` [compound 73], the minimal effective concentration was less than 10 µM. For `Nc1ncnc2c1c(-c1ccc(Cl)cc1)nn2Cc1ccccc1` [compound 28], the minimal effective concentration was in the range of 10 to 50 µM. Same read-out and setting: under `CC(C)(C)n1nc(C(N)=O)c2c(N)ncnc21` [compound 89, 4-Amino-1-tert-butyl-1H-pyrazolo[3,4-d]pyrimidine-3-carboxylic acid amide] stands greater than 50 µM.

A further assay has as its target T1, ΔF508 CFTR (Homo sapiens, UniProt P13569, DEL508-508). As to the kind of experiment: Potentiator activity, YFP halide (iodide) quenching assay in FRT cells expressing ΔF508 CFTR, 27° C. pre-incubation. It is filed as cell-based. Details: expressed in transfected cells; host or cells: Fischer rat thyroid (FRT) cells. The following applies: FRT cells ΔF508 CFTR/YFP, 24 hours at 27° C., compound with forskolin 30 min. The essentials: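 FRT cells stably co-expressing ΔF508 CFTR and halide-sensitive YFP, grown 24 h at 37° C. then 24 h at 27° C. to raise surface CFTR. Compounds in PBS with forskolin, 30 min at 37° C.; iodide injected and YFP quenching (ex 485/em 530 nm) followed. EC50 from normalized endpoint fluorescence.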
Regarding `CCn1nc(N(C)c2cccc(Cl)c2)c2c(N)ncnc21` [compound 317], the pEC50 (usually the negative decadic logarithm of the EC50, by convention in mol/L) is less than 4.82. Regarding `CC(C)(C)n1nc(Oc2ccc(Cl)cc2)c2c(N)ncnc21` [compound 168], the pEC50 is greater than 5.70. Regarding `CC(C)(C)n1nc(-c2ccc(Cl)cc2)c2c(NC(=O)C3CCCC3)ncnc21` [compound 266], the pEC50 was greater than 5.70. Take `Nc1ncnc2c1c(-c1ccc(Cl)cc1)nn2-c1ccc([N+](=O)[O-])cn1` [compound 288]: the pEC50 is less than 4.82. The same measure, in the same setting: in the case of `CCn1cc(-c2ccc(Cl)cc2)c2c(NS(C)(=O)=O)ncnc21` [Compound No. 305, N-[5-(4-Chloro-phenyl)-7-ethyl-7H-pyrrolo[2,3-d]pyrimidin-4-yl]-methanesulfonamide] it was less than 4.82. The same measure, in the same setting: under `Nc1ncnc2c1c(-c1ccc(Cl)cc1)cn2CC(F)F` [compound 290] stands 5.30 to 5.70.

A further assay deals with T1, ΔF508 CFTR. Nature of the assay: Corrector activity, YFP halide (iodide) quenching assay in FRT cells expressing ΔF508 CFTR. The conditions noted are these: FRT cells ΔF508 CFTR/YFP, 24 hours with compound at 37° C., forskolin and genistein; read-out: Corrector EC50. Details: expressed in transfected cells; host or cells: Fischer rat thyroid (FRT) cells. It is filed as cell-based. Summed up:
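FRT cells co-expressing ΔF508 CFTR and halide-sensitive YFP were incubated 24 h at 37° C with compounds, then stimulated 30 min at 37° C in PBS with forskolin and genistein. Endpoint fluorescence after iodide injection was normalized to initial reading; EC50 from 4-parameter fit with bottom constrained to DMSO control.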
On to `CCn1nc(N(C)c2cccc(Cl)c2)c2c(N)ncnc21` [compound 317], for which the pEC50 was less than 4.82. In the case of `CC(C)(C)n1nc(Oc2ccc(Cl)cc2)c2c(N)ncnc21` [compound 168], the pEC50 was less than 4.82. On to `CC(C)(C)n1nc(-c2ccc(Cl)cc2)c2c(NC(=O)C3CCCC3)ncnc21` [compound 266], for which the pEC50 was 5.00 to 5.30. For the compound `Nc1ncnc2c1c(-c1ccc(Cl)cc1)nn2-c1ccc([N+](=O)[O-])cn1` [compound 288], the pEC50 was less than 4.82. With `CCn1cc(-c2ccc(Cl)cc2)c2c(NS(C)(=O)=O)ncnc21` [Compound No. 305, N-[5-(4-Chloro-phenyl)-7-ethyl-7H-pyrrolo[2,3-d]pyrimidin-4-yl]-methanesulfonamide], the pEC50 is less than 4.82. Regarding `Nc1ncnc2c1c(-c1ccc(Cl)cc1)cn2CC(F)F` [compound 290], the pEC50 is greater than 5.70.
